Results published in patent US20190008870A1, “COMPOSITIONS AND METHODS FOR LIPID METABOLISM DISORDER” (JANSFAT BIOTECHNOLOGY CO., LTD., priority 2016, published 2019).
Several values for one entry are separate records, joined by “and”; a condition that tells them apart may be missing. Equal entries are not always repeated.

Key:
ROCK II [1] = assay: ROCK II expression in HepG2 cells; assay type: cell-based
Description: (§1) The HepG2 hepatoma cell line was purchased from the American Type Culture Collection (ATCC, Manassas, Va., U.S.A.). Cells were cultured in Dulbecco's Modified Eagle's Medium (DMEM). […] Then the targeted drugs solution was incubated with the cells for 24 hours, followed by protein extraction. […] HepG2 cells were treated with various concentrations of targeted drugs for 24 hours. Reactions were terminated by washing twice with cold PBS, and the cells were then harvested. Proteins in the whole-cell lysate were homogenized in an ice-cold lysis buffer and a protease inhibitor (Sigma-Aldrich, St. Louis, Mo., U.S.A.). The homogenate was centrifuged at 90,000×g for 15 minutes at 4° C., and supernatant was recovered as the total cellular protein. Cytosolic and membrane fractions of HepG2 cells were prepared using a CNM (Cytosol Nuclear Membrane) compartmental protein extraction kit (BioChain Institute Inc., Hayward, Calif., U.S.A.) according to the manufacturer's instructions. All of the fractionated protein solutions were stored at -80° C. until analysis. To measure the expression levels of proteins by drugs, the total cell protein was extracted after incubation with treatments for 24 hours and then Western blotting analysis was performed as described previously.

PPARγ = PPARγ expression in HepG2 cells; assay type: cell-based; conditions: HepG2 cells; for PPARγ: Control 100
Description: as §1, with “−80°” for “-80°”

HMG CoA reductase = HMG CoA reductase expression in HepG2 cells (Western blotting); assay type: cell-based; conditions: for HMGR (%): CTL 100
Description: The HepG2 hepatoma cell line was purchased from the American Type Culture Collection (ATCC, Manassas, Va., U.S.A.). Cells were cultured in Dulbecco's Modified Eagle's Medium (DMEM). The culture media was supplemented with 5% heat-inactivated FBS, penicillin (100 U/mL) and streptomycin (100 μg/mL). Cells were grown in a humidified atmosphere containing 5% CO2 at 37° C., in which the oxygen tension in the incubator was held at 140 mmHg (20% O2, v/v; normoxic conditions). […] Then the targeted drugs solution was incubated with the cells for 24 hours, followed by protein extraction. The targeted drugs were added to the […].
HepG2 cells were treated with various concentrations of targeted drugs for 24 hours. Reactions were terminated by washing twice with cold PBS, and the cells were then harvested. Proteins in the whole-cell lysate were homogenized in an ice-cold lysis buffer and a protease inhibitor (Sigma-Aldrich, St. Louis, Mo., U.S.A.). The homogenate was centrifuged at 90,000×g for 15 minutes at 4° C., and supernatant was recovered as the total cellular protein. Cytosolic and membrane fractions of HepG2 cells were prepared using a CNM (Cytosol Nuclear Membrane) compartmental protein extraction kit (BioChain Institute Inc., Hayward, Calif., U.S.A.) according to the manufacturer's instructions. All of the fractionated protein solutions were stored at −80° C. until analysis. To measure the expression levels of proteins by drugs, the total cell protein was extracted after incubation with treatments for 24 hours and then Western blotting analysis was performed as described previously.

mice fed with HFD = assay: Serum and liver lipid levels of mice fed with HFD; assay type: in vivo; conditions: for HDL chol. / LDL chol. / TG / Tot. chol.: Dose 2.5 mg/kg (Table 2)
Description: (§2) During the 2 month experiments, mice fasted for one night before the experiment was changed from a standard diet (STD) to an HFD and then the mice were randomly divided into 13 groups, including a protection group, 2 control and 10 treatment groups. Six mice were used in each group. […] Liver from the protection group supplemented with KMUP-1 HCl (1 mg/kg/day) were used to determine the HMG CoA reductase expression. Each group of mice had free access to drinking water from week 1 to week 14. Tap water was used to normalize mineral nutrition.
Within 2 months, the 3 day food intake average for each animal was measured. The weight gain and plasma lipid levels of each group were determined and compared to the non-treatment control group. […] Agents used in the assays were obtained from Merck & Co. (Kenilworth, N.J., U.S.A.). Triglyceride (TG), total cholesterol, HDL cholesterol and LDL cholesterol in mouse serum were measured by methods used in the clinic. To measure the hepatic Triglyceride, isolated liver were cut into small chips.

[2] = Body weight and food intake of mice fed with HFD; assay type: in vivo; conditions: HFD mice, 5 mg/kg p.o.
Description: as §2, with “In the experiment, C57BL/6J male mice (21-22 g), after fasting, were fed an HFD as a model of hyperlipidemia for 8 weeks. During” for “During”
Within 2 months, the 3 day food intake average for each animal was measured. The weight gain and plasma lipid levels of each group were determined and compared to the non-treatment control group. Mouse blood was collected during the daytime by cardiac puncture followed by centrifugation at 90×g (Benchtop Centrifuge, U.S.A.) to separate the serum, and frozen at −80° C., for biochemical analysis using a Hitachi Clinical Analyzer 7070 (Hitachi High-Technologies Co. Tokyo, Japan). Agents used in the assays were obtained from Merck & Co. (Kenilworth, N.J., U.S.A.). Triglyceride (TG), total cholesterol, HDL cholesterol and LDL cholesterol in mouse serum were measured by methods used in the clinic. To measure the hepatic Triglyceride, isolated liver were cut into small chips.

ABCA1 = ABCA1 expression in HepG2 cells; assay type: cell-based; conditions: HepG2 cells, 10^−5 M, 24 hours; Control 100, Vehicle 110
Description: as §1, with “−80°” for “-80°”

PDE-5A = assay: Expression of PDE-5A (Table 12); conditions: Control group 100 (%)
ROCK II [3] = assay: Expression of ROCK II (Table 12); conditions: Control group 100 (%)
eNOS = assay: Expression of eNOS (Table 12); conditions: Control group 100 (%)

## CC(C)=CCC/C(C)=C/CC/C(C)=C/COP(=O)(O)OP(=O)(O)O [FPP, Farnesyl pyrophosphate, reference compound]
ROCK II [1]; FPP (10 μM) alone, Control 100
  ROCKII: 118%
PPARγ; FPP (10 μM) alone
  PPARγ: 64%

## CC(C)=CCC/C(C)=C/CC/C(C)=C/CC/C(C)=C/COP(=O)(O)OP(=O)(O)O [GGPP, Geranylgeranyl pyrophosphate, reference compound]
ROCK II [1]; GGPP (10 μM) alone, Control 100
  ROCKII: 150% and 220%
PPARγ; GGPP (10 μM) alone
  PPARγ: 50%

## CC(O)(CCO)CC(=O)O (stereo not drawn) [Mevalonate]
HMG CoA reductase; Mevalonate 20 (μm)
  HMGR (%): 110%
HMG CoA reductase; Mevalonate 40 (μm)
  HMGR (%): 95%
HMG CoA reductase; Mevalonate 60 (μm)
  HMGR (%): 55%
HMG CoA reductase; Mevalonate 80 (μm)
  HMGR (%): 48%
HMG CoA reductase; Mevalonate 100 (μm)
  HMGR (%): 13%
HMG CoA reductase; Mevalonate (100 μM) alone, Control 100
  HMG CoA expression: 20%

## Nc1nc2c(nc(Sc3ccc(Cl)cc3)n2[C@@H]2O[C@@H]3CO[P@@](=O)(S)O[C@H]3[C@H]2O)c(=O)[nH]1 [Rp-8-pCPT-cGMPS, 8-(p-chloro-phenylthio)guanosine-3,5-monophosphorothioate, reference compound]
ROCK II [1]; Rp-8-pCPT-cGMPS 10 μM alone, Control 100
  ROCK II expression: 320

## CCCc1nn(C)c2c(=O)nc(-c3cc(S(=O)(=O)N4CCN(C)CC4)ccc3OCC)[nH]c12 [SIDAF, 5-[2-ethoxy-5-(4-methylpiperazin-1-yl)-sulphonylphenyl]-1-methyl-3-propyl-4H-pyrazolo[4,3-d]pyrimidin-7-one, reference compound]
Mice fed with HFD; 5 mg/kg p.o.
  HDL cholesterol: 103.2 ± 2.5 mg/dL
  LDL cholesterol: 15.3 ± 1.3 mg/dL
  TG in serum (Triacylglycerol): 82.7 ± 6.3 mg/dL
  TG of liver: 34.5 ± 2.** mg/dl
  Tot. chol. (total cholesterol): 133.7 ± 4.3 mg/dL
[2]
  final BW (Body weight): 23.9 ± 0.9 g

## C[C@@H](N)[C@H]1CC[C@H](C(=O)Nc2ccncc2)CC1 [Y27632, reference compound]
ABCA1
  ABCA1 expression: 225
ROCK II [1]; 10^−5 M, 24 hours, Control 100, Vehicle 88
  ROCK II expression: 52
PPARγ; 10^−5 M, 24 hours, Control 100, Vehicle 260
  PPARγ expression: 550

## KMUP-1-DL-ascorbic acid [KMUP-1-VC]
Mice fed with HFD
  HDL chol.: 97.3 ± 1.6 mg/dL
  LDL chol.: 16.5 ± 0.9 mg/dL
  TG: 78.2 ± 3.6 mg/dL
  Tot. chol.: 129.4 ± 1.4 mg/dL
PDE-5A
  PDE-5A expression: 68.8 ± 5.3%
ROCK II [3]
  ROCK II expression: 40.8 ± 3.7%

## KMUP-1-sodium carboxyl methylcellulose [KMUP-1-CMC]
Mice fed with HFD
  HDL chol.: 108.4 ± 1.3 mg/dL
  LDL chol.: 16.4 ± 1.7 mg/dL
  TG: 83.2 ± 5.3 mg/dL
  Tot. chol.: 129.7 ± 1.6 mg/dL
eNOS
  eNOS expression: 152.14 ± 6.3%
PDE-5A
  PDE-5A expression: 58.7 ± 3.5%
ROCK II [3]
  ROCK II expression: 38.6 ± 2.7%
